Laboratory results from ChEMBL document CHEMBL1201862, “PubChem BioAssay data set” (2004).
The source made the active and inactive calls.

How the values were obtained:
[1] = cells
[2] = molecular target: Major prion protein (Homo sapiens, UniProt P04156); assay type: functional, cell-based
[3] = molecular target: NAD-dependent protein deacylase sirtuin-5, mitochondrial (Homo sapiens, UniProt Q9NXA8); test: sirtuin-5 deacylation blockers, concentration series – biochemical, fluorescence imaging, cherry-pick, set 5, dose response (AID 720591);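 also: desuccinylation of succinyl peptide AMC substrate read as fluorescence after trypsin release; potency of inhibitors that lower fluorescence and may act on trypsin instead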
[4] = molecular target: Nonstructural protein 1 (Influenza A virus, UniProt Q194T2); assay type: functional, Influenza A virus (A/California/07/2009(H1N1))
[5] = HGIII-sPLA2 enzyme inhibition potency – biochemical, QFRET, IC50, dose response (AID 743457);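 also: green fluorescence rise as the enzyme cleaves BODIPY PC-A2 in liposomes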
[6] = molecular target: T1, Polyadenylate-binding protein 1 (Homo sapiens, UniProt P11940); test: MLLE domain peptide-binding blockers, IC50 – biochemical, fluorescence polarization, FITC-PAM2 peptide, dose response (AID 602259); assay type: functional; conditions: read-out: IC50_Mean
[7] = molecular target: T1, Polyadenylate-binding protein 1; test: MLLE binding blockers, Cy5 peptide tracer – biochemical, fluorescence polarization, Cy5-PAM2 peptide, secondary, miRNA deadenylation inhibitor project, dose response (AID 602260); assay type: functional; conditions: read-out: IC50_Mean
[8] = general mammalian cell viability loss – activator set, cherry-pick, cytotoxicity control for miR-122 modulator project, dose response (AID 720690); assay type: functional, cell-based;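 also: HEK293T human cells scored for general mammalian cytotoxicity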
[9] = reduced cellular PGC1a acetyl-lysine signal – cell-based, cherry-picked samples, dose response (AID 720514); assay type: functional;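 also: potency may reflect raised or lowered acetylation signal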
[10] = molecular target: T2, Oxysterols receptor LXR-beta (Homo sapiens, UniProt P55055); assay type: functional, cell-based;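 also: Cell-based luminescence dose-response assay of agonist activity at LXR, run as a confirmatory counterscreen to a daf-12 agonist screen; agonist potency from rising luciferase signal of a Gal4-LXR reporter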
T2 sequence (P55055 whole entry): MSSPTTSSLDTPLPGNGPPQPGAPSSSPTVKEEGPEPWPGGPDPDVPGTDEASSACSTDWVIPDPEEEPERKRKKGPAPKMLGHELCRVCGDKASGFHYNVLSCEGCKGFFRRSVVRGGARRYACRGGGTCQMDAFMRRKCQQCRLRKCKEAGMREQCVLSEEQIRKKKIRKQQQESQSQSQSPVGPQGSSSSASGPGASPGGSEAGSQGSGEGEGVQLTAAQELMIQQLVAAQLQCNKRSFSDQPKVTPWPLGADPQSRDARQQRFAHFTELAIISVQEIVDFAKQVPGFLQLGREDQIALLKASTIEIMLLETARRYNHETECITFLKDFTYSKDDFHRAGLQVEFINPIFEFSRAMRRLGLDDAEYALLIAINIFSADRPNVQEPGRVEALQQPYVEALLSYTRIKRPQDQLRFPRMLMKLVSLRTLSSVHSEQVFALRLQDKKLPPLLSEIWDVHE

[11] = cells; remark: listed apart in the source
[12] = molecular target: T3, Microphthalmia-associated transcription factor (Homo sapiens, UniProt O75030); test: reducers of TRPM1 reporter luminescence, concentration series – cell-based, SK-MEL-5, cherry-picked, set 3, MITF inhibitor project, dose response (AID 493073); assay type: functional;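 also: SK-MEL-5 melanoma cells with luciferase driven by the MITF target TRPM1 promoter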
T3 sequence (O75030 whole entry): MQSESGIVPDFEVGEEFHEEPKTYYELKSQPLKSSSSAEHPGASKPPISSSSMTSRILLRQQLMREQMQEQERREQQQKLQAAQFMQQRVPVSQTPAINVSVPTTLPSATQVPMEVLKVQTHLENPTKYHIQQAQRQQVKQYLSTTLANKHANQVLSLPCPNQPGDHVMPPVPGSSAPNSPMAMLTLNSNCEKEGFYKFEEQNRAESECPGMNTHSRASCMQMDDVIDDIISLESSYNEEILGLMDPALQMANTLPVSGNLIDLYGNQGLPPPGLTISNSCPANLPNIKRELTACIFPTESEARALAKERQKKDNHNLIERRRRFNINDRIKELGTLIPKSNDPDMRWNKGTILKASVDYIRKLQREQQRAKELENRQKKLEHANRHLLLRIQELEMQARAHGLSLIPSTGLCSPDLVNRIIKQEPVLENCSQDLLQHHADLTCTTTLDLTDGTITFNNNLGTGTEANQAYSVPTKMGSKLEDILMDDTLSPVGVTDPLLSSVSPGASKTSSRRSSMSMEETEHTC

[13] = molecular target: T4, Calpain-2 catalytic subunit (Sus scrofa, UniProt P43367); test: m-calpain protease blockers, concentration series – biochemical, fluorogenic peptide substrate, dose response (AID 1420); assay type: functional
T4 sequence (P43367 whole entry): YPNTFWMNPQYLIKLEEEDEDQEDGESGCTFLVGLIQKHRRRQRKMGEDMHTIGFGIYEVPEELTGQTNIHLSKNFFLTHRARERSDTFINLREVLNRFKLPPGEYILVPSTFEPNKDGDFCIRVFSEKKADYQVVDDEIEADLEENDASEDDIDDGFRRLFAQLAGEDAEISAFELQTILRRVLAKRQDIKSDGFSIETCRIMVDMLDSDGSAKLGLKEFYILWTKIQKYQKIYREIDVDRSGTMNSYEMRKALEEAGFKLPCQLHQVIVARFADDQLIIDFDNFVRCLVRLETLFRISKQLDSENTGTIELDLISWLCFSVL

[14] = Luminescence-based cell-based high throughput dose response assay to identify activators of the DAF-12 from the parasite S. stercoralis (ssDAF-12).; assay type: functional
[15] = molecular target: T2, Oxysterols receptor LXR-beta; test: LXR agonists, Gal4 luciferase reporter, dose response, counter-screen for ssDAF-12 agonist project, cell-based, luminescence, HEK293, S. stercoralis campaign (AID 720737); assay type: functional; conditions: read-out: IC50 (the source's name)
[16] = molecular target: Cytochrome P450 2C9 (Homo sapiens, UniProt P11712)
[17] = molecular target: Peroxisome proliferator-activated receptor gamma/Nuclear receptor coactivator 1 (Homo sapiens, UniProt P37231); test: TR-FRET dose response biochemical High Throughput Screening assay for agonists of the steroid receptor coactivator 1 (SRC-1) recruitment by the peroxisome proliferator-activated receptor gamma (PPAR gamma): non-selective agonists. [Related pubchem assays (depositor defined):AID1300, AID1808, AID504735, AID631]; assay type: protein assay
[18] = molecular target: Peroxisome proliferator-activated receptor gamma/Nuclear receptor coactivator 2 (Homo sapiens, UniProt P37231); test: (§1) TR-FRET dose response biochemical High Throughput Screening assay for agonists of the steroid receptor coactivator 2 (SRC-2) recruitment by the peroxisome proliferator-activated receptor gamma (PPAR gamma): non-selective agonists. [Related pubchem assays: 1297, 1032 ]; assay type: functional
[19] = molecular target: Peroxisome proliferator-activated receptor gamma/Nuclear receptor coactivator 3 (Homo sapiens, UniProt P37231); test: as §1, with “3 (SRC-3)” for “2 (SRC-2)”, “1301 (Confirmation screen.), 1048 (Primary screen.)]” for “1297, 1032 ]”; assay type: functional
[20] = molecular target: Albumin (Bos taurus, UniProt P02769); test: Counterscreen for inhibitors of T-cell receptor (TCR)-CD3 interaction: Fluorescence-based biochemical high throughput dose response assay to identify inhibitors of T-cell receptor (TCR)-CD3 interaction using a TAMRA-labeled BSA probe.; assay type: functional
[21] = molecular target: T5, Protein skinhead-1 (Caenorhabditis elegans, UniProt P34707); assay type: functional
T5 sequence (P34707 whole entry): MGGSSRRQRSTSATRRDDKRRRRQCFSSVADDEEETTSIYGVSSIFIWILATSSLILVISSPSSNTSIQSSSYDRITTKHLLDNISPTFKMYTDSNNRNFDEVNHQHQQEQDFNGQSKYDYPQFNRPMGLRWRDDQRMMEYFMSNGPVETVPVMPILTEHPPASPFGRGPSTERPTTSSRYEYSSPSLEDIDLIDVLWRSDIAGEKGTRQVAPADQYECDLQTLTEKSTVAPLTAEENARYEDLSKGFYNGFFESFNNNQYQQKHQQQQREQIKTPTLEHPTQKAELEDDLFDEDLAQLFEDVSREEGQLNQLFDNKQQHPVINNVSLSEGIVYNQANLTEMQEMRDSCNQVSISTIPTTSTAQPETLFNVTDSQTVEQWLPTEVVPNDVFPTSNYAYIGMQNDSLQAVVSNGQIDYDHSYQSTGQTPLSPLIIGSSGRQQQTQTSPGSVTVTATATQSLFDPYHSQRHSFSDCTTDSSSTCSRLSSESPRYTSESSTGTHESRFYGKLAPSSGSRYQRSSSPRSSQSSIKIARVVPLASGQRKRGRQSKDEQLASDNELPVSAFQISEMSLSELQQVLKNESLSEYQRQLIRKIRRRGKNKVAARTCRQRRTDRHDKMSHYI

[22] = molecular target: Cytochrome P450 2D6 (Homo sapiens, UniProt P10635);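 also: CYP2D6 member of a cytochrome P450 panel assay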
[23] = molecular target: T6, Rac GTPase-activating protein 1 (Homo sapiens, UniProt Q9H0H5); test: blockers of MgcRacGAP-driven Rac1 GTP hydrolysis – biochemical, ADP Hunter fluorescence, primary and confirmatory, confirmation (AID 624330); assay type: functional
T6 sequence (Q9H0H5 whole entry): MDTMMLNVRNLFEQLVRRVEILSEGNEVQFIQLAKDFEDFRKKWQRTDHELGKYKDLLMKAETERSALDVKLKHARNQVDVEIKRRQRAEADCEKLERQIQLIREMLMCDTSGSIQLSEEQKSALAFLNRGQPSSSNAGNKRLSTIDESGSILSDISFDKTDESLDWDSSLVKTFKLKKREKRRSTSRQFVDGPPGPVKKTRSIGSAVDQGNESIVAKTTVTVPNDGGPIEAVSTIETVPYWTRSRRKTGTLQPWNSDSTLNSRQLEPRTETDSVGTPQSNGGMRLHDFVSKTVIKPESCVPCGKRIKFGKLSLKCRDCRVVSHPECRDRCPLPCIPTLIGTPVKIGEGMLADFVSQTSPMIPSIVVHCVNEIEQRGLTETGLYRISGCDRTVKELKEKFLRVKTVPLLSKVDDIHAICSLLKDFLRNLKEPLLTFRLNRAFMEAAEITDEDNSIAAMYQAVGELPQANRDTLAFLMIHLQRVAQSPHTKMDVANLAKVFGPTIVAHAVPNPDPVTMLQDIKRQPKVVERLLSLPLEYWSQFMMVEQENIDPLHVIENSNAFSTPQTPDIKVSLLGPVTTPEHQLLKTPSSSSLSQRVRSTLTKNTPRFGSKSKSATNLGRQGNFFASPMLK

## CC(C)c1nc(SCC(=O)N2CC(=O)Nc3ccccc32)c2ccccc2n1
[1]
  IC50: 67.3 µM (inactive)
[2]
  IC50: 2.41 µM (active)

## CCc1ccc(NS(=O)(=O)c2c(C)noc2C)cc1
[3]
  AC50: > 30 µM (inactive)

## NC(=O)c1ccc(C(F)(F)F)cn1
[3]
  AC50: > 30 µM (inactive)

## O=C1c2ccccc2C(=O)c2c1cccc2N1CCOCC1
[4]
  IC50: 19.7 µM (active)
[5]
  IC50: > 122 µM (inactive)

## O=C(CSc1ncnc2ccccc12)NCc1ccco1
[1]
  IC50: > 138 µM (inactive)
[6]
  IC50: > 66 µM (inactive)
[2]
  IC50: 6.83 µM (active)
[7]
  IC50: > 66 µM (inactive)

## COCC(=O)N1[C@H](CO)[C@@H](c2ccccc2)[C@H]1CNC(=O)c1ccccn1
[8]
  AC50: 37.2 µM (active)

## CO[C@H]1CN(C)C(=O)c2cc(NC(=O)NC(C)C)ccc2OC[C@H](C)N(Cc2ccc(-c3ccccn3)cc2)C[C@@H]1C
[9]
  AC50: 22.6 µM (active)

## COc1ccc(-c2cc3ccccc3c(=O)o2)cc1
[10]
  EC50: > 67.5 µM (inactive)
[11]
  EC50: > 67.5 µM (inactive)

## Clc1cccc(-c2nc(-c3ccccn3)no2)c1
[12]
  AC50: 5.92 µM (active)
[10]
  EC50: > 67.5 µM (inactive)
[11]
  EC50: > 67.5 µM (inactive)

## CCc1sc(C(=O)N2CCc3ccccc32)cc1C
[13]
  IC50: 9.39 µM (not active)
[14]
  IC50: > 67.5 µM (inactive)
[15]
  EC50: > 67.5 µM (inactive)

## Cc1cc(C)c(NC(=O)CSc2nc3cc(Br)c[nH]c-3n2)c(C)c1
[3]
  AC50: > 30 µM (inactive)

## CC1C(=O)N2CCCc3cc(S(=O)(=O)NCCc4ccccc4)cc1c32 (configuration not stated)
[3]
  AC50: > 30 µM (inactive)

## c1ccc(Cc2nnc(Sc3ccccc3)c3ccccc23)cc1
[1]
  IC50: 64 µM (inactive)
[16]
  AC50: 25.1 µM (inconclusive)
[17]
  EC50: > 79.4 µM (inactive)
[2]
  IC50: 6.51 µM (active)
[18]
  EC50: 2.35 µM (active)
[19]
  EC50: > 79.4 µM (not active)

## Cc1ccc(N/C=C/C(=O)c2ccccc2)cc1Br
[14]
  IC50: > 67.6 µM (inactive)
[15]
  EC50: > 67.6 µM (inactive)

## COc1cccc(OCC(=O)NNC(=O)c2ccc3ccccc3c2O)c1
[20]
  IC50: > 94.1 µM (inactive)
[5]
  IC50: > 122 µM (inactive)

## Cc1ccc(S(=O)(=O)Nc2ccccc2C(=O)NCc2cccnc2)cc1
[9]
  AC50: 25.6 µM (active)

## O=C(/C=C\Nc1cccc(F)c1)c1cccs1
[21]
  IC50: 28.1 µM (active)
[10]
  EC50: > 67.5 µM (inactive)
[11]
  EC50: > 67.5 µM (inactive)

## Clc1cccc(Nc2ncnc3ccc(Br)cc23)c1
[1]
  IC50: 122 µM (inactive)
[22]
  AC50: 31.6 µM (inconclusive)
[2]
  IC50: 6.28 µM (active)

## COC(=O)c1ccccc1N(C)S(=O)(=O)c1cc2c(cc1C)OCC(=O)N2
[9]
  AC50: 24.1 µM (active)

## CCOc1cc(NC(=O)C(C)C)c(OCC)cc1N=C(S)NCc1ccccc1
[5]
  IC50: > 122 µM (inactive)

## O=C(Nc1ccc(Cl)cc1)N1C[C@H]2[C@@H](c3ccccc31)[C@H](CO)N2CC1CCCCC1
[8]
  AC50: 28.7 µM (active)

## c1ccc(-c2ccc(-c3ccccn3)s2)nc1
[14]
  IC50: > 67.6 µM (inactive)
[10]
  EC50: > 67.5 µM (inactive)
[11]
  EC50: > 67.5 µM (inactive)
[15]
  EC50: > 67.6 µM (inactive)

## CCN(CC)S(=O)(=O)c1ccc(NC(=O)CSc2ncnc3ccccc23)cc1
[1]
  IC50: > 138 µM (inactive)
[2]
  IC50: 7.17 µM (active)

## Cc1ccc(Nc2nnc(S)s2)c(C)c1
[5]
  IC50: > 122 µM (inactive)
[23]
  IC50: 154 µM (active)

## Cn1c(CNc2ccc(F)cc2)nc2ccccc21
[14]
  IC50: > 67.5 µM (inactive)
[15]
  EC50: > 67.5 µM (inactive)
